Experiments:
human EHMT2 913-1193 = molecular target: T1, human EHMT2 913-1193 (Homo sapiens, UniProt Q96KQ7); experiment: EHMT2 enzyme assay on histone peptide substrate (EHMT2 PEP); type: biochemical; conditions: Table II; read-out: EHMT2 PEP (IC50 μM)
T1 construct: recombinant purified human EHMT2 913-1193, Viva; purchased Viva
T1 sequence (Q96KQ7 913-1193): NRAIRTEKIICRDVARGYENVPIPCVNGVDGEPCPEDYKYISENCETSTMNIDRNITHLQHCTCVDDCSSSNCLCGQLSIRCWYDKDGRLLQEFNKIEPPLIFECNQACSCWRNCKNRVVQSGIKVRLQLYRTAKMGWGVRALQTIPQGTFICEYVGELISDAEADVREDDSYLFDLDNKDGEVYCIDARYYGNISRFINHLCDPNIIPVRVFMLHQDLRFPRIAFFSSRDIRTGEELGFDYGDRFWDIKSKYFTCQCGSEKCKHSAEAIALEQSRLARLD
Procedure, shortened: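 Radiometric methyltransferase read-out: ^3H-methyl transfer from ^3H-SAM onto biotinylated histone peptide, captured on streptavidin Flashplates after 60 min reaction at room temperature. Enzyme 0.031 nM, preincubated 30 min with inhibitor; buffer 20 mM Bicine pH 7.5 with 1 mM TCEP; top compound concentration 50 μM final, 2% DMSO.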

EHMT1 = molecular target: T2, EHMT1 (Homo sapiens, UniProt Q9H9B1); experiment: EHMT1 enzyme assay on peptide substrate (EHMT1 PEP); type: biochemical; conditions: Table II; read-out: EHMT1 PEP (IC50 μM)
T2 sequence (Q9H9B1 1-1298): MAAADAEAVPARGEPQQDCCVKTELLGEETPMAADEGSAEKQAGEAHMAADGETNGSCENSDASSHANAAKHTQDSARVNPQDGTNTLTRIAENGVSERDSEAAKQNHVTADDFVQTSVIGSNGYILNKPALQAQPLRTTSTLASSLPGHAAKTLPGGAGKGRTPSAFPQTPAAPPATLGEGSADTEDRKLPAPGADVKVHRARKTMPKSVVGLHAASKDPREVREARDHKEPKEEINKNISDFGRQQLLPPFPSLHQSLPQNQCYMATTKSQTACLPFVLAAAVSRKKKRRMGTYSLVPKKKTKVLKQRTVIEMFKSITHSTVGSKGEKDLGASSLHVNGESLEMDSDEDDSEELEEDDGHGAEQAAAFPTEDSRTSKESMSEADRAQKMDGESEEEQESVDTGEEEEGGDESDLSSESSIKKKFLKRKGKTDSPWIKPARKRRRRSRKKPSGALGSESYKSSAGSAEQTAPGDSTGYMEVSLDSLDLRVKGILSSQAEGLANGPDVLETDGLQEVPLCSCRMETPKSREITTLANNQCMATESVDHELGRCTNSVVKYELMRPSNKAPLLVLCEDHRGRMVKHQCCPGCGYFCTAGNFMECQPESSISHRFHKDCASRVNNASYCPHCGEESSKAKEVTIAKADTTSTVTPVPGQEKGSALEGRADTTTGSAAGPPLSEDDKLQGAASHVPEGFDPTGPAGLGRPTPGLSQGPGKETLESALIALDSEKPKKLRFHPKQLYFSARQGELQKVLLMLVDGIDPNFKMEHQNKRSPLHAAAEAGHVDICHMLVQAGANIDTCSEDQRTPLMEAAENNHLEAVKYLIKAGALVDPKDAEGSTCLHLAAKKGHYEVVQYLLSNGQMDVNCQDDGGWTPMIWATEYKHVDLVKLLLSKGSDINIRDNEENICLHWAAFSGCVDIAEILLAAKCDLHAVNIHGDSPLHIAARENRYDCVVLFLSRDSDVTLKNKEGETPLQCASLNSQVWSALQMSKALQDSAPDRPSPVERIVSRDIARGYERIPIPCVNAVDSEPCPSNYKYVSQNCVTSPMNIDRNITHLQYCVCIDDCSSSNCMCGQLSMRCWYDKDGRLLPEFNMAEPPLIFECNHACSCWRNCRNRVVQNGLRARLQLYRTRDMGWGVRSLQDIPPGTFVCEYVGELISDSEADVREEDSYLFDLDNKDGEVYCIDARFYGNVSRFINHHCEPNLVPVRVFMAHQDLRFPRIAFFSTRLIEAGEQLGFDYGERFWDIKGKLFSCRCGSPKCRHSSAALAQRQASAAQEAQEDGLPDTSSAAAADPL

| SMILES | IC50 (human EHMT2 913-1193) | IC50 (EHMT1) |
| --- | --- | --- |
| COc1ccc(Nc2nccc(N3CCc4nc[nH]c(=O)c4C3)n2)cc1OCCCN1CCCC1 [Compound 134] | > 10 µM | > 10 µM |
| COc1ccc(Nc2nccc(N(C)Cc3cccnc3)n2)cc1OCCCN1CCCC1 [Compound 135] | 1 to 10 µM | 1 to 10 µM |
| COc1ccc(Nc2nccc(N(C)Cc3ccccn3)n2)cc1OCCCN1CCCC1 [Compound 136] | 1 to 10 µM | 1 to 10 µM |
| COc1ccc(Nc2nccc(N3CCCN(C(C)=O)CC3)n2)cc1OCCCN1CCCC1 [Compound 138] | 1 to 10 µM | > 10 µM |
| COc1ccc(Nc2nccc(N3CCN(C(C)=O)CC3)n2)cc1OCCCN1CCCC1 [Compound 139] | > 10 µM | > 10 µM |
| COCCCN(C)c1ccnc(Nc2ccc(OC)c(OCCCN3CCCC3)c2)n1 [Compound 143] | 1 to 10 µM | 1 to 10 µM |
| COc1ccc(Nc2nccc(CNC(C)=O)n2)cc1OCCCN1CCCC1 [Compound 144] | > 10 µM | > 10 µM |
| CC(=O)N1CCC(CNc2ccnc(Nc3ccc(C)c(OCCCN4CCCC4)c3)n2)CC1 [Compound 145] | 1 to 10 µM | 1 to 10 µM |
| COc1ccc(Nc2nccc(N(C)CC3CCOCC3)n2)cc1OCCCN1CCCC1 [Compound 146] | > 10 µM | > 10 µM |
| COc1ccc(Nc2nccc(N3CCC(O)CC3)n2)cc1OCCCN1CCCC1 [Compound 148] | 1 to 10 µM | > 10 µM |
| COc1ccc(Nc2nccc(N3CCC(OC)CC3)n2)cc1OCCCN1CCCC1 [Compound 149] | > 10 µM | > 10 µM |
| COc1ccc(Nc2nccc(N(C)CCO)n2)cc1OCCCN1CCCC1 [Compound 150] | 0.1 to 1 µM | 1 to 10 µM |
| COc1ccc(Nc2nccc(NC3CCS(=O)(=O)CC3)n2)cc1OCCCN1CCCC1 [Compound 152] | 1 to 10 µM | 1 to 10 µM |
| COc1ccc(Nc2ccnc(OCC3CCN(C(C)=O)CC3)c2)cc1OCCCN1CCCC1 [Compound 157] | 1 to 10 µM | 1 to 10 µM |
| COc1ccc(N(C)c2nccc(NCC3CCN(C(C)=O)CC3)n2)cc1OCCCN1CCCC1 [Compound 158] | > 10 µM | > 10 µM |
| COc1ccc(Nc2nccc(NCC3CCN(C(C)=O)CC3)n2)cc1OCCCNc1ccccc1 [Compound 160] | > 10 µM | > 10 µM |
| COc1ccc(Nc2nccc(N3CCC(NC(C)=O)CC3)n2)cc1OCCCN1CCCC1 [Compound 161] | > 10 µM | > 10 µM |
| COc1ccc(Nc2nccc(N3CCN(S(C)(=O)=O)CC3)n2)cc1OCCCN1CCCC1 [Compound 162] | > 10 µM | > 10 µM |
| COc1ccc(Nc2cc(N(C)CC3CCN(C(C)=O)CC3)ccn2)cc1OCCCN1CCCC1 [Compound 163] | > 10 µM | > 10 µM |
| COc1ccc(Nc2nccc(NCc3ccc4[nH]ncc4c3)n2)cc1OCCCN1CCCC1 [Compound 164] | > 10 µM | > 10 µM |
| COc1ccc(Nc2nccc(N3CCN(c4ccccn4)CC3)n2)cc1OCCCN1CCCC1 [Compound 168] | > 10 µM | > 10 µM |
| COc1ccc(Nc2nccc(N3CCS(=O)(=O)CC3)n2)cc1OCCCN1CCCC1 [Compound 169] | > 10 µM | > 10 µM |
| COc1ccc(Nc2nccc(N3CC(C(=O)N(C)C)C3)n2)cc1OCCCN1CCCC1 [Compound 170] | > 10 µM | > 10 µM |
| COc1ccc(Nc2cc(OCC3CCN(C(C)=O)CC3)ccn2)cc1OCCCN1CCCC1 [Compound 173] | 1 to 10 µM | 1 to 10 µM |
| CNc1cccc(Nc2ccc(OC)c(OCCCN3CCCC3)c2)n1 [Compound 176] | > 10 µM | > 10 µM |
| COc1ccc(Nc2nccc(NCCC3CCOCC3)n2)cc1OCCCN1CCCC1 [Compound 178] | 0.1 to 1 µM | 0.1 to 1 µM |
| COc1ccc(Nc2ncc(CO)cn2)cc1OCCCN1CCCC1 [Compound 181] | > 10 µM | > 10 µM |
| COc1cnc(Nc2cc(NCC3CCN(C(C)=O)CC3)ccn2)cc1OCCCN1CCCC1 [Compound 182] | 0.1 to 1 µM | 0.1 to 1 µM |
| COc1ccc(Nc2nccc(NCC3CCN(C(C)=O)CC3)n2)cc1OCC(C)CN1CCCC1 (stereo not drawn) [Compound 183] | 1 to 10 µM | 1 to 10 µM |

Now from value to compound:

| IC50 (human EHMT2 913-1193) | IC50 (EHMT1) | SMILES |
| --- | --- | --- |
| 1 to 10 µM | 1 to 10 µM | COc1ccc(Nc2nccc(NC3COC3)n2)cc1OCCCN1CCCC1 [Compound 137] |
| 1 to 10 µM | 1 to 10 µM | COc1ccc(Nc2nccc(N(C)CCCO)n2)cc1OCCCN1CCCC1 [Compound 140] |
| > 10 µM | > 10 µM | COc1ccc(Nc2nccc(N3CCC(C)(O)CC3)n2)cc1OCCCN1CCCC1 [Compound 141] |
| 1 to 10 µM | 1 to 10 µM | COc1ccc(Nc2nccc(N(C)C3CCOCC3)n2)cc1OCCCN1CCCC1 [Compound 142] |
| 1 to 10 µM | 1 to 10 µM | COc1ccc(Nc2nccc(N3CCC(C(C)(C)O)CC3)n2)cc1OCCCN1CCCC1 [Compound 147] |
| > 10 µM | > 10 µM | COc1ccc(Nc2nccc(N3CCCOCC3)n2)cc1OCCCN1CCCC1 [Compound 151] |
| 1 to 10 µM | 1 to 10 µM | COc1ccc(Nc2nccc(N3CCC(C(N)=O)CC3)n2)cc1OCCCN1CCCC1 [Compound 153] |
| 1 to 10 µM | > 10 µM | COc1ccc(Nc2nccc(N3CCNc4ccccc4C3)n2)cc1OCCCN1CCCC1 [Compound 154] |
| 1 to 10 µM | > 10 µM | COc1ccc(Nc2nccc(N3CCc4cn[nH]c4C3)n2)cc1OCCCN1CCCC1 [Compound 155] |
| 1 to 10 µM | 1 to 10 µM | COc1ccc(Nc2nccc(N3CCc4ncncc4C3)n2)cc1OCCCN1CCCC1 [Compound 156] |
| > 10 µM | > 10 µM | COc1ccc(Nc2nccc(NCC3CCN(C)CC3)n2)cc1OCCCNc1ccccc1 [Compound 159] |
| 0.1 to 1 µM | 0.1 to 1 µM | COc1ccc(Nc2nccc(NCc3ccc(=O)[nH]c3)n2)cc1OCCCN1CCCC1 [Compound 165] |
| > 10 µM | > 10 µM | COc1ccc(Nc2nccc(NCC3CCN(C(C)=O)CC3)n2)cc1OCCC(=O)N1CCCC1 [Compound 166] |
| 0.1 to 1 µM | 0.1 to 1 µM | COc1ccc(Nc2nccc(NCCc3ccccn3)n2)cc1OCCCN1CCCC1 [Compound 167] |
| 1 to 10 µM | 1 to 10 µM | COc1ccc(Nc2nccc(N(C)C)n2)cc1OCCCN1CCCC1 [Compound 171] |
| 1 to 10 µM | 1 to 10 µM | COc1ccc(Nc2nccc(N(C)CC3CCN(C(C)=O)CC3)n2)cc1OCCCN1CCCC1 [Compound 172] |
| > 10 µM | > 10 µM | COc1ccc(Nc2nccc(C)n2)cc1OCCCN1CCCC1 [Compound 174] |
| > 10 µM | > 10 µM | COc1ccc(Nc2nc(C)cc(C)n2)cc1OCCCN1CCCC1 [Compound 175] |
| 1 to 10 µM | > 10 µM | COCCN(C)c1ccnc(Nc2ccc(OC)c(OCCCN3CCCC3)c2)n1 [Compound 177] |
| > 10 µM | > 10 µM | COc1ccc(Nc2nccc(N3CC(C(N)=O)C3)n2)cc1OCCCN1CCCC1 [Compound 179] |
| > 10 µM | > 10 µM | COc1ccc(Nc2nccc(-n3cc(C)cn3)n2)cc1OCCCN1CCCC1 [Compound 180] |
| > 10 µM | > 10 µM | COc1ccc(Nc2cncc(NCC3CCN(C(C)=O)CC3)c2)cc1OCCCN1CCCC1 [Compound 184] |

Source: US20210198277A1, “AMINE-SUBSTITUTED ARYL OR HETEROARYL COMPOUNDS” (Epizyme, Inc., priority 2016, published 2021)
